Reference: patent US20120202756A1, “USE OF PRODRUGS TO AVOID GI MEDIATED ADVERSE EVENTS” (priority 2009, published 2012)
Values after ≈ are worked out from the molar mass of the structure shown. Counter-ions that a name gives are not always drawn. Like-named read-outs stand apart in the source and are kept apart here.

What was measured:
Listeria monocytogenes [1] = conditions: antibiotic-susceptible clinical isolate
Enterococcus faecium = conditions: vancomycin-susceptible clinical isolate
Clostridium difficile [2] = tested on: Clostridium difficile
[3] = tested on: Staphylococcus saprophyticus; conditions: antibiotic susceptible clinical isolate
[4] = tested on: Peptostreptococcus anaerobius; assay: MIC, clindamycin prodrugs; format: cell-based; conditions: NCTC 11460
[5] = tested on: Peptostreptococcus magnus; conditions: clinical isolate
[6] = tested on: Peptostreptococcus micros; conditions: clinical isolate
Fusobacterium nucleatum [7] = conditions: clinical isolate
Streptococcus mitis [8] = conditions: antibiotic-susceptible clinical isolate
Prevotella denticola [9] = conditions: clinical isolate
Prevotella intermedia [10] = conditions: clinical isolate
Veillonella spp. = conditions: clinical isolate
[11] = tested on: Streptococcus constellatus; conditions: antibiotic-susceptible clinical isolate
[12] = tested on: Porphyromonas endodontalis; conditions: clinical isolate
[13] = tested on: Porphyromonas assacharolyticus; conditions: clinical isolate
Clostridium bifermentans = conditions: ATCC 638
Clostridium novyi [14] = conditions: ATCC 19402
[15] = tested on: Fusobacterium necrophorum; conditions: clinical isolate
Enterococcus faecalis [16] = conditions: ATCC 29212 antibiotic-susceptible type strain
[17] = relative bioavailability of clindamycin vs dosing clindamycin itself, male rats, mean
Protocol: Serial tail vein blood samples were subsequently collected via an indwelling cannuala into EDTA tubes containing a stabilising cocktail (including 6 mg/mL NaF) to prevent post collection enzymic hydrolysis of the prodrug.

[18] = Stability in USP simulated gastric juice; format: in vitro ADME; conditions: USP SGF pH 1.1, pepsin […], prodrug 20 μg/mL
Excerpt: To minimize the direct inhibitory action of this drug on gastric emptying/gut motility—and resultant nausea—the prodrug should not undergo premature chemical or enzymic cleavage back to the parent drug while within the gut lumen.

Prevotella denticola [19] = assay: microbe, parasite or virus in culture; conditions: read-out: Minimum inhibitory concentration
[20] = tested on: Porphyromonas endodontalis; assay: microbe, parasite or virus in culture; conditions: read-out: Minimum inhibitory concentration
Clostridium novyi [21] = assay: microbe, parasite or virus in culture; conditions: ATCC19402, read-out: Minimum inhibitory concentration
Clostridium difficile [22] = assay: microbe, parasite or virus in culture; conditions: Clostridioides difficile
Streptococcus agalactiae = assay: microbe, parasite or virus in culture; conditions: read-out: Minimum inhibitory concentration
Streptococcus mitis [23] = assay: microbe, parasite or virus in culture; conditions: read-out: Minimum inhibitory concentration
Enterococcus faecalis [24] = assay: microbe, parasite or virus in culture; conditions: ATCC29212, read-out: Minimum inhibitory concentration
Streptococcus oralis = assay: microbe, parasite or virus in culture; conditions: read-out: Minimum inhibitory concentration
Fusobacterium nucleatum [25] = assay: microbe, parasite or virus in culture; conditions: read-out: Minimum inhibitory concentration
[26] = tested on: Fusobacterium necrophorum; assay: microbe, parasite or virus in culture; conditions: read-out: Minimum inhibitory concentration
Prevotella oralis = assay: microbe, parasite or virus in culture; conditions: Hoylesella oralis, read-out: Minimum inhibitory concentration
Listeria monocytogenes [27] = assay: microbe, parasite or virus in culture; conditions: read-out: Minimum inhibitory concentration
[28] = tested on: Streptococcus constellatus; assay: microbe, parasite or virus in culture; conditions: read-out: Minimum inhibitory concentration
Corynebacterium jeikeium = assay: microbe, parasite or virus in culture; conditions: read-out: Minimum inhibitory concentration
[29] = tested on: Peptostreptococcus magnus; assay: microbe, parasite or virus in culture; conditions: Finegoldia magna, read-out: Minimum inhibitory concentration
Prevotella intermedia [30] = assay: microbe, parasite or virus in culture; conditions: read-out: Minimum inhibitory concentration
Group G Streptococcus = assay: microbe, parasite or virus in culture; conditions: read-out: Minimum inhibitory concentration
[31] = tested on: Peptostreptococcus micros; assay: microbe, parasite or virus in culture; conditions: Parvimonas micra, read-out: Minimum inhibitory concentration
[32] = antibiotic-susceptible clinical isolate
[33] = ribotype 002 - clinical isolate
[34] = ribotype 011 - clinical isolate
[35] = ribotype 027 - clinical isolate
[36] = ribotype 050 - clinical isolate
[37] = ribotype 176 - clinical isolate

CCCC1CC(C(=O)NC(C(C)Cl)C2OC(SC)C(OC(=O)CCCC(=O)Nc3ccc(C(=O)O)cc3)C(O)C2O)N(C)C1.O=C(O)C(F)(F)F (stereo not shown) [Clindamycin glutaryl PABA ester, Clindamycin-2-(glutaryl-PABA) ester trifluoroacetate]
Minimum inhibitory concentration (Listeria monocytogenes [1]): 32 µg/mL
Minimum inhibitory concentration (Enterococcus faecium): >64 µg/mL
Minimum inhibitory concentration (Clostridium difficile [2]; ATCC 700057): >64 µg/mL
Minimum inhibitory concentration (Clostridium difficile [2]; NCTC 13366 - NAP1/027): >64 µg/mL
Minimum inhibitory concentration (Clostridium difficile [2]; [32]): >64 µg/mL
Minimum inhibitory concentration (Clostridium difficile [2]; [33]): >64 µg/mL
Minimum inhibitory concentration (Clostridium difficile [2]; [34]): >64 µg/mL
Minimum inhibitory concentration (Clostridium difficile [2]; [35]): >64 µg/mL
Minimum inhibitory concentration (Clostridium difficile [2]; [36]): >64 µg/mL
Minimum inhibitory concentration (Clostridium difficile [2]; [37]): >64 µg/mL
Minimum inhibitory concentration [3]: 4 µg/mL
Minimum inhibitory concentration [4]: 32 µg/mL
Minimum inhibitory concentration [5]: 64 µg/mL
Minimum inhibitory concentration [6]: 8 µg/mL
Minimum inhibitory concentration (Fusobacterium nucleatum [7]): 2 µg/mL
Minimum inhibitory concentration (Streptococcus mitis [8]): 0.5 µg/mL
Minimum inhibitory concentration (Prevotella denticola [9]): 4 µg/mL
Minimum inhibitory concentration (Prevotella intermedia [10]): 0.12 µg/mL
Minimum inhibitory concentration (Veillonella spp.): 1 µg/mL
Minimum inhibitory concentration [11]: 2 µg/mL
Minimum inhibitory concentration [12]: 0.12 µg/mL
Minimum inhibitory concentration [13]: 0.12 µg/mL
Minimum inhibitory concentration (Clostridium bifermentans): 32 µg/mL
Minimum inhibitory concentration (Clostridium novyi [14]): 4 µg/mL
Minimum inhibitory concentration [15]: 1 µg/mL
Minimum inhibitory concentration (Enterococcus faecalis [16]): >64 µg/mL
Frel [17]: 51%
Frel ([17]; listed as Clindamycin glutaryl PABA ethyl ester): 51%
Simulated gastric juice (1 h, 37° C.) % active drug generated [18]: <1%

CCCC1CC(C(=O)NC(C(C)Cl)C2OC(SC)C(OC(=O)CCC(=O)N[C@H](C(=O)O)C(C)C)C(O)C2O)N(C)C1 (stereo partly drawn) [Clindamycin succinyl valine ester, Clindamycin-2-[succinyl-(S)-valine]ester trifluoroacetate]
Minimum inhibitory concentration (Listeria monocytogenes [1]): 16 µg/mL
Minimum inhibitory concentration (Enterococcus faecium): >64 µg/mL
Minimum inhibitory concentration (Clostridium difficile [2]; ATCC 700057): >64 µg/mL
Minimum inhibitory concentration (Clostridium difficile [2]; NCTC 13366 - NAP1/027): 64 µg/mL
Minimum inhibitory concentration (Clostridium difficile [2]; [32]): >64 µg/mL
Minimum inhibitory concentration (Clostridium difficile [2]; [33]): 64 µg/mL
Minimum inhibitory concentration (Clostridium difficile [2]; [34]): 64 µg/mL
Minimum inhibitory concentration (Clostridium difficile [2]; [35]): 64 µg/mL
Minimum inhibitory concentration (Clostridium difficile [2]; [36]): 32 µg/mL
Minimum inhibitory concentration (Clostridium difficile [2]; [37]): >64 µg/mL
Minimum inhibitory concentration [3]: 1 µg/mL
Minimum inhibitory concentration [4]: 8 µg/mL
Minimum inhibitory concentration [5]: 16 µg/mL
Minimum inhibitory concentration [6]: 2 µg/mL
Minimum inhibitory concentration (Fusobacterium nucleatum [7]): 0.25 µg/mL
Minimum inhibitory concentration (Streptococcus mitis [8]): 0.25 µg/mL
Minimum inhibitory concentration (Prevotella denticola [9]): 1 µg/mL
Minimum inhibitory concentration (Prevotella intermedia [10]): 0.12 µg/mL
Minimum inhibitory concentration (Veillonella spp.): 0.5 µg/mL
Minimum inhibitory concentration [11]: 1 µg/mL
Minimum inhibitory concentration [12]: 0.12 µg/mL
Minimum inhibitory concentration [13]: 0.12 µg/mL
Minimum inhibitory concentration (Clostridium bifermentans): 4 µg/mL
Minimum inhibitory concentration (Clostridium novyi [14]): 0.5 µg/mL
Minimum inhibitory concentration [15]: 0.12 µg/mL
Minimum inhibitory concentration (Enterococcus faecalis [16]): >64 µg/mL
Frel [17]: 8%
Simulated gastric juice (1 h, 37° C.) % active drug generated [18]: <1%

CCC[C@@H]1C[C@@H](C(=O)N[C@@H]([C@H]2O[C@H](SC)[C@H](O)[C@@H](O)[C@H]2O)[C@H](C)Cl)N(C)C1 [Clindamycin, clindamycin, reference compound]
MIC (Prevotella denticola [19]): ≤ 0.03 µg/mL
MIC [20]: ≤ 0.03 µg/mL
MIC (Clostridium novyi [21]): ≤ 0.03 µg/mL
MIC (Clostridium difficile [22]; ATCC700057, read-out: Minimum inhibitory concentration, ATCC 700057): 8 µg/mL (≈ 18.8 µM)
MIC (Clostridium difficile [22]; NCTC13366, read-out: Minimum inhibitory concentration, NCTC 13366 - NAP1/027): 4 µg/mL (≈ 9.41 µM)
MIC (Clostridium difficile [22]; read-out: Minimum inhibitory concentration, antibiotic-susceptible clinical isolate): 8 µg/mL (≈ 18.8 µM)
MIC (Clostridium difficile [22]; read-out: Minimum inhibitory concentration, ribotype 002 - clinical isolate): 2 µg/mL (≈ 4.71 µM)
MIC (Clostridium difficile [22]; read-out: Minimum inhibitory concentration, ribotype 011 - clinical isolate): 4 µg/mL (≈ 9.41 µM)
MIC (Clostridium difficile [22]; read-out: Minimum inhibitory concentration, ribotype 027 - clinical isolate): 4 µg/mL (≈ 9.41 µM)
MIC (Clostridium difficile [22]; read-out: Minimum inhibitory concentration, ribotype 050 - clinical isolate): 4 µg/mL (≈ 9.41 µM)
MIC (Clostridium difficile [22]; read-out: Minimum inhibitory concentration, ribotype 176 - clinical isolate): 4 µg/mL (≈ 9.41 µM)
MIC (Streptococcus agalactiae): ≤ 0.03 µg/mL
MIC (Streptococcus mitis [23]): ≤ 0.03 µg/mL
MIC (Enterococcus faecalis [24]): 8 µg/mL (≈ 18.8 µM)
MIC (Streptococcus oralis): ≤ 0.03 µg/mL
MIC (Fusobacterium nucleatum [25]): ≤ 0.03 µg/mL
MIC [26]: ≤ 0.03 µg/mL
MIC (Prevotella oralis): ≤ 0.03 µg/mL
MIC (Listeria monocytogenes [27]): 1 µg/mL (≈ 2.35 µM)
MIC [28]: ≤ 0.03 µg/mL
MIC (Corynebacterium jeikeium): > 64 µg/mL
MIC [29]: 0.5 µg/mL (≈ 1.18 µM)
MIC (Prevotella intermedia [30]): ≤ 0.03 µg/mL
MIC (Group G Streptococcus): ≤ 0.03 µg/mL
MIC [31]: 0.06 µg/mL (≈ 0.141 µM)
